Measurements: publication PMC13083723 (Patterns, 2026)

System: Vero-E6 cells
Assay: cells
Assay type: cell-based
Details: Chlorocebus sabaeus, Vero C1008, 24 h, read-out: PL_Result

SMILES | activation at 10 µM
O=C(O)CC1CC(c2ccccc2)=NO1 (stereo not drawn) [SPE_A32269193] | -19.4%
N#CCNC(=O)c1ccc(-c2ccnc(Nc3ccc(N4CCOCC4)cc3)n2)cc1 [SPE_K87737963] | 7.32%
CN(C)CCc1c[nH]c2ccc(CS(=O)(=O)N3CCCC3)cc12 [SPE_K67601717] | -4.95%
CC(C)c1cc(C(=O)N2Cc3ccc(CN4CCN(C)CC4)cc3C2)c(O)cc1O [SPE_K58435339] | 0.714%
COc1ccc(S(=O)(=O)N2CCC[C@H]2C(=O)Nc2cc(C)cc(C)c2)cc1 [SPE_K19781342] | 0.676%
Nc1c(S(=O)(=O)O)cc(Nc2cccc3ccccc23)c2c1C(=O)c1ccccc1C2=O [SPE_K71266197] | -13.9%
COc1ccc(/C=C/C(=O)O)cc1 [SPE_K26273521] | -9.12%
OC[C@H]1O[C@H](O)C[C@@H](O)[C@@H]1O [SPE_K97808269] | -3.49%
CN(C)C(=N)NCCC[C@H](N)C(=O)O [SPE_K36269323] | -6.39%
Cc1cn(C2CC(N=[N+]=[N-])C(CO)O2)c(=O)[nH]c1=O (stereo not drawn) [SPE_A33692381] | -1.92%
Cc1nc(Nc2ncc(C(=O)Nc3c(C)cccc3Cl)s2)cc(N2CCN(CCO)CC2)n1 [SPE_K49328571] | 0.377%
CC[C@H](CO)Nc1nc(NCc2ccccc2)c2ncn(C(C)C)c2n1 [SPE_K07691486] | 5.8%
CC(C)(C)C(=O)OCC(=O)[C@H]1CC[C@H]2[C@@H]3CCC4=CC(=O)CC[C@]4(C)[C@H]3CC[C@]12C [SPE_K26024145] | -4.69%
CCCN(C/C=C/I)C1CCc2cccc(O)c2C1 (stereo not drawn) [SPE_A60594020] | 6.75%
O=C(O)CC(S)C(=O)O (stereo not drawn) [SPE_A43435802] | 5.6%
O=C(O)c1ccc(-c2c[nH]c3ncc(-c4ccccc4)cc23)cc1C1CCCC1 [SPE_K14991967] | -4.54%
CN(C)CC(=O)Nc1ccc2[nH]c(=O)c3ccccc3c2c1 [SPE_K11853856] | -0.459%
CN1CCN(c2nc(C3=C(c4c[nH]c5ccccc45)C(=O)NC3=O)c3ccccc3n2)CC1 [SPE_K16761703] | 37.5%
c1ccc2oc(C3=NCCN3)cc2c1 [SPE_K22745370] | -9.99%
Cc1[nH]c2ccccc2c1CCNCc1ccc(/C=C/C(=O)NO)cc1 [SPE_K02130563] | -9.42%
Cc1ccsc1/C=C/C1=NCCCN1C [SPE_K71454870] | -13.8%

SMILES | activation at 10 µM
COc1ccccc1C(=O)Nc1cccc(NC(=O)c2cccc(C)c2)c1 [SPE_K02160913] | -4.26%
CC[C@@]1(O)C(=O)OCc2c1cc1n(c2=O)Cc2cc3c(CN(C)C)c(O)ccc3nc2-1 [SPE_K55696337] | -1.88%
c1ccc(C(O[C@@H]2CCCN(CCc3ccc4c(c3)OCO4)C2)c2ccccc2)cc1 [SPE_K80451230] | 13%
C=C[C@@]1(C)CC(=O)[C@@]2(O)[C@](C)(O1)[C@@H](OC(C)=O)[C@@H](O)C1C(C)(C)CC[C@H](O)[C@@]12C (stereo partly drawn) [SPE_A55416093] | -12.3%
CN1c2ccccc2C(=O)N2CCc3c([nH]c4ccccc34)C21 (stereo not drawn) [SPE_A68631409] | -12.1%
Cc1nccc2[nH]c(=O)ccc12 [SPE_K40715924] | -2.15%
COc1cc(Nc2nc3ccccc3nc2NS(=O)(=O)c2ccc(NC(=O)c3ccc(C)c(OC)c3)cc2)cc(OC)c1 [SPE_K75308783] | -7.72%
CCN1C(=O)CN=C2NC=C(c3ccc(-c4nnc[nH]4)nc3C)N=C21 [SPE_K16755045] | 5.12%
CCOC(=O)Nc1ccc(NCc2ccc(F)cc2)cc1N [SPE_K89917372] | -6.22%
COC(=O)C1=CCCN(C)C1 [SPE_K88646909] | 3.55%
CN1CCN(c2c(F)cc3c(=O)c(C(=O)O)cn4c3c2SCC4)CC1 [SPE_K62374253] | -11.9%
O=C(O)CCn1c2c(c3ccccc31)C[C@H](NS(=O)(=O)c1ccc(F)cc1)CC2 [SPE_K08586861] | -12%
CCN(CC)CCOC(=O)C(c1ccccc1)C1CCCCC1 (stereo not drawn) [SPE_A22267103] | 53.9%
Cc1c(C2CCN(CCc3ccccc3)CC2)noc1-c1ccc(Cl)cc1 [SPE_K13211965] | 49%
CC(C)=CCC[C@](C)(O)[C@H]1CC[C@]2(C)[C@@H]1[C@H](O)C[C@@H]1[C@@]3(C)CC[C@H](O)C(C)(C)[C@@H]3CC[C@]12C [SPE_K60005752] | -8.61%
CCC1(c2ncc[nH]2)Cc2ccccc2O1 (stereo not drawn) [SPE_A38747044] | 2.93%
Nc1nc2ccc(Cl)cc2c2nc(-c3ccco3)nn12 [SPE_K49049886] | 7.39%
CNC1CCCN(c2c(F)cc3c(=O)c(C(=O)O)cn(C4CC4)c3c2OC)C1 (stereo not drawn) [SPE_A47790386] | 3.04%
OC(CN1CCN(c2cccc(Cl)c2)CC1)C(c1ccccc1)c1ccccc1 (stereo not drawn) [SPE_A51829654] | -10.3%
CC(C)OC(=O)OCOP(=O)(CO[C@H](C)Cn1cnc2c(N)ncnc21)OCOC(=O)OC(C)C [SPE_K61868322] | -3.62%
COc1ccc([C@H]2CNC(=O)C2)cc1OC1CCCC1 [SPE_K65856711] | -5.06%

SMILES | activation at 10 µM
Cc1cc(C(N)=O)ccc1-n1c(CCC(=O)O)ccc1-c1ccc(-n2ccnc2)cc1 [SPE_K82522873] | -2.92%
CCn1ccnc1CC1COc2ccccc2O1 (stereo not drawn) [SPE_A10903566] | 2.21%
Nc1nc(=O)[nH]cc1F [SPE_K82143716] | -8.79%
CCN(CC)CCOCCOC(=O)C1(c2ccccc2)CCCC1 [SPE_K06181161] | 11.3%
O=[N+]([O-])O[C@@H]1CO[C@H]2[C@@H]1OC[C@@H]2O [SPE_K82225283] | -18.1%
CC(C)CNc1nc(-c2cccc3ncccc23)cn2c(-c3ccc(C(=O)NC4CC4)cc3)cnc12 [SPE_K18530250] | -11.5%
CC(CNS(=O)(=O)C(C)C)c1ccc(-c2ccc(C#N)cc2)cc1 (stereo not drawn) [SPE_A50062753] | -2.67%
Cc1cc(C)c2nc(-c3ccccn3)cc(C(=O)Nc3ccc(S(=O)(=O)Nc4onc(C)c4C)cc3)c2c1 [SPE_K27539181] | 7.09%
CC(C)(O)CC(=O)NCCn1ccc2ncnc(Nc3ccc(Oc4cccc(C(F)(F)F)c4)c(Cl)c3)c21 [SPE_K80343549] | -7.02%
CCC1NC(=O)c2cc(S(N)(=O)=O)c(Cl)cc2N1 (stereo not drawn) [SPE_A59303141] | -4.81%
C=CCc1cc(OC)c(O)c(C(=O)NCCO)c1 [SPE_K60102752] | -3.89%
O=C(C1CCCCC1)N1CC(=O)N2CCc3ccccc3C2C1 (stereo not drawn) [SPE_A21858158] | -0.34%
COc1ccc(F)c(F)c1C(=O)c1cnc(NC2CCN(S(C)(=O)=O)CC2)nc1N [SPE_K52233191] | -6.09%
COc1cccc([C@H](O)C2CCN(CCc3ccc(F)cc3)CC2)c1OC [SPE_K23647661] | -9.45%
Nc1ncnc2c1ncn2[C@@H]1O[C@H](CO)[C@@H](O)[C@H]1O [SPE_K01577834] | -3.02%
Cc1ncc(CO)c(C=O)c1O [SPE_K76204040] | -1.79%
Cc1cc(/C=C/C#N)cc(C)c1Nc1ccnc(Nc2ccc(C#N)cc2)n1 [SPE_K06240250] | -8.07%
COc1cccc(NC(=O)/C=C/c2ccc(Cl)cc2)c1 [SPE_K61536336] | -7.48%
Cc1nc(NC(=O)N2CCC[C@H]2C(N)=O)sc1-c1ccnc(C(C)(C)C(F)(F)F)c1 [SPE_K54997624] | 12.6%
Cc1cc(N2CCOCC2)ccc1Nc1nc(NC2CCCCC2)c2nc[nH]c2n1 [SPE_K45551181] | -0.298%
C[C@@H](c1ncncc1F)[C@](O)(Cn1cncn1)c1ccc(F)cc1F [SPE_K06557128] | -4.59%

SMILES | activation at 10 µM
CCOc1cc(N2CCC(O)CC2)ccc1Nc1ncc2c(n1)N(C)c1ccccc1C(=O)N2C [SPE_K50387473] | -6.3%
CC(C)c1ccc(CC(=O)N2CCC[C@@H](c3cccc(OC(C)(C)C(=O)O)c3)C2)cc1 [SPE_K96843359] | -10.8%
Clc1ccc(Cn2c(CN3CCCC3)nc3ccccc32)cc1 [SPE_K04704168] | 18%
CC[C@]12CCCN3CCc4c(n(c5ccccc45)C(=O)C1)[C@@H]32 [SPE_K40227168] | -8.29%
COc1ccc2[nH]c3nnc(C)c-3c(NCCOCCO)c2c1 [SPE_K02460719] | -9.99%
CC(C)COC(=O)c1ccc(N)cc1 [SPE_K96714749] | 1.09%
Cc1ccc2nc(N)nc(O)c2c1Sc1ccncc1 [SPE_K36636143] | 2.73%
Oc1cc(Cl)ccc1Oc1ccc(Cl)cc1Cl [SPE_K41731458] | 0.158%
CC(C)(Oc1ccc(Cl)cc1)C(=O)O [SPE_K19111024] | -0.104%
CC(CN(C)C)C(C)(O)Cc1ccc(Cl)cc1 (stereo not drawn) [SPE_A43809092] | -8.69%
NS(=O)(=O)c1ccc(-n2nc(C(F)(F)F)cc2-c2ccc(Cl)cc2)cc1 [SPE_K76365178] | -2.4%
COc1cc(C(=S)N2CCOCC2)cc(OC)c1OC [SPE_K29570907] | -7.35%
CCCCC/C=C\C=C/CCCCCCCCC(=O)O [SPE_K26222048] | -6.49%
CCOC(=O)c1cc(C#N)c(N2CCC(C(=O)NS(=O)(=O)Cc3ccccc3)CC2)nc1C [SPE_K77060810] | -0.985%
NC(C(=O)O)c1nnn[nH]1 (stereo not drawn) [SPE_A14757586] | -5.28%
C=C(C)CN1CC[C@]23c4c5ccc(O)c4O[C@H]2c2[nH]c4ccccc4c2C[C@@]3(O)C1C5 [SPE_A75769826] | 35%
CCCNC(=O)N1N=C(c2ccc(N)cc2)c2cc3c(cc2C1C)OCO3 (stereo not drawn) [SPE_A77218119] | 7.61%
CC[C@@H]([C@H](C)O)n1ncn(-c2ccc(N3CCN(c4ccc(OC[C@@H]5CO[C@@](Cn6cncn6)(c6ccc(F)cc6F)C5)cc4)CC3)cc2)c1=O [SPE_K06222852] | -4.55%
NC1(Cc2ccc(Cl)cc2)CCN(c2ncnc3[nH]ccc23)CC1 [SPE_K76406695] | -4.38%
CN1CCC[C@@H]1Cc1c[nH]c2ccc(CCS(=O)(=O)c3ccccc3)cc12 [SPE_K30652337] | 1.82%
CC(C)NCC(O)c1ccc(O)c(O)c1 (stereo not drawn) [SPE_A04322457] | -1.28%
